The record followed here is US7563800B2, “Substituted pyrazolo[3,4-D]pyrimidines as p38 map kinase inhibitors” (Roche Palo Alto LLC, priority 2006, dated 2009).

One data set has as its target T1, p38 MAP kinase (Homo sapiens, UniProt Q16539).
T1 construct: made in house; host or cells: E. coli (co-expressed with SEK-1 and MEKK)
The data set is described as follows: p38 (MAP) kinase in vitro assay. The data set is classed as biochemical. The following applies: transfer of γ-phosphate from γ-33P-ATP to Myelin Basic Protein; phosphorylated recombinant p38 MAP kinase. How it is done:
This example illustrates a p38 (MAP) kinase in vitro assay useful for evaluating the compounds of the invention.
The p38 MAP kinase inhibitory activity of compounds of this invention in vitro was determined by measuring the transfer of the γ-phosphate from γ-^33P-ATP by p-38 kinase to Myelin Basic Protein (MBP), using a minor modification of the method described in Ahn, et al., J. Biol. Chem. 266:4220-4227 (1991).
The phosphorylated form of the recombinant p38 MAP kinase was co-expressed with SEK-1 and MEKK in E. Coli (see, Khokhlatchev, et al., J. Biol. Chem. 272:11057-11062 (1997)) and then purified by affinity chromatography using a Nickel column.
The phosphorylated p38 MAP kinase was diluted in kinase buffer (20 mM 3-(N-morpholino)propanesulfonic acid, pH 7.2, 25 mM β-glycerol phosphate, 5 mM ethylene glycol-bis(beta-aminoethyl ether)-N,N,N′,N′-tetraacetic acid, 1 mM sodium ortho-vanadate, 1 mM dithiothreitol, 40 mM magnesium chloride). Test compound dissolved in DMSO or only DMSO (control) was added and the samples were incubated for 10 min at 30° C. The kinase reaction was initiated by the addition of a substrate cocktail containing MBP and γ-^33P-ATP. […] The phosphorylated MBP was then separated from the residual γ-^33P-ATP using a phosphocellulose membrane (Millipore, Bedfrod, Mass.) and quantitated using a scintillation counter (Packard, Meriden, Conn.).

T1 sequence (Q16539 whole entry): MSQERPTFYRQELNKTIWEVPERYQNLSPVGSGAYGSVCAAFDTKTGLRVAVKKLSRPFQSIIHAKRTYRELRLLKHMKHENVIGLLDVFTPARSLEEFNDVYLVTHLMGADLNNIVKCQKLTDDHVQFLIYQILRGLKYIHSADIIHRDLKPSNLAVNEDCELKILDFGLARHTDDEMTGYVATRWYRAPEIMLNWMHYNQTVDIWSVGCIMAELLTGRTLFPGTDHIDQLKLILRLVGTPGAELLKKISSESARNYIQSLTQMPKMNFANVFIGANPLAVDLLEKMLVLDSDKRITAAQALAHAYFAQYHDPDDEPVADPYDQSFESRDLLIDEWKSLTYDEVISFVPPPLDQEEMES

As usually defined, the IC50 is the concentration at which inhibition is half-maximal. What is called melting point is the temperature, or range, at which the solid turns liquid. For `CC(C)Oc1n[nH]c2nc(Oc3ccc(F)cc3F)ncc12` [Compound 1, 6-(2,4-Difluoro-phenoxy)-3-isopropoxy-1H-pyrazolo[3,4-d]pyrimidine], the melting point was 143.7 to 145 °C. Besides, on p38 MAP kinase, the IC50 is about 165 nM.
